Key:
[1] = tested on: large (Lg) crabgrass; test: Test A postemergence; assay type: in vivo, Digitaria sanguinalis; details: 0 to 100 scale where 0 is no effect and 100 is complete control
Outline: (§1)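 Greenhouse pot test, loam/sand soil. Formulation: non-phytotoxic solvent mix plus surfactant. Pre: directed spray onto soil after sowing. Post: plants at 1–2 leaf, 2–10 cm. Rated visually vs untreated controls at ~10 d, 0 (no effect) to 100 (complete control).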

[2] = tested on: giant foxtail; test: Test A postemergence; assay type: in vivo, Setaria faberii; details: 0 to 100 scale where 0 is no effect and 100 is complete control
Outline: as §1

[3] = tested on: velvetleaf; test: Test C postemergence; assay type: in vivo, Abutilon theophrasti; details: for Plant response rating, Velvetleaf: Postemergence, scale 0 to 100 (0 no effect, 100 complete control)
Outline: (§2)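 Visual ratings on a 0–100 scale (100 = complete control) were made versus untreated controls after 13–15 greenhouse days. Chemicals in a surfactant-containing non-phytotoxic solvent were applied either preemergence to seeds in loam–sand soil or postemergence to 1- to 4-leaf plants 2–18 cm tall.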

[4] = tested on: waterhemp; test: Test C preemergence; assay type: in vivo, Amaranthus rudis; details: for Waterhemp plant response rating: preemergence
Outline: as §2

[5] = tested on: pigweed; test: Test C postemergence; assay type: in vivo, Amaranthus retroflexus; details: for Plant response rating, Pigweed: Postemergence, scale 0 to 100 (0 no effect, 100 complete control)
Outline: as §2

[6] = tested on: morningglory; test: Test A postemergence; assay type: in vivo, Ipomoea spp.; details: 0 to 100 scale where 0 is no effect and 100 is complete control
Outline: as §1

[7] = tested on: pigweed; test: Test C preemergence; assay type: in vivo, Amaranthus retroflexus; details: for Pigweed plant response rating: preemergence
Source text: (§3) Seeds of plant species selected from blackgrass (Alopecurus myosuroides), Italian ryegrass (Lolium multiflorum), wheat, winter (winter wheat, Triticum aestivum), galium (catchweed bedstraw, Galium aparine), corn (Zea mays), large (Lg) crabgrass (Digitaria sanguinalis), giant foxtail (Setaria faberii), johnsongrass (Sorghum halepense), lambsquarters (Chenopodium album), morningglory (Ipomoea coccinea), yellow nutsedge (Cyperus esculentus), pigweed (Amaranthus retroflexus), ragweed (common ragweed, Ambrosia elatior), soybean (Glycine max), barnyardgrass (Echinochloa crus-galli), oilseed rape (Brassica napus), waterhemp (common waterhemp, Amaranthus rudis), kochia (Kochia scoparia), wild oat (Avena fatua), surinam grass (Brachiaria decumbens), foxtail, green (green foxtail, Setaria viridis), goosegrass (Eleusine indica), bromegrass, downy (downy bromegrass, Bromus tectorum), nightshade (eastern black nightshade, Solanum ptycanthum), cocklebur (common cocklebur, Xanthium strumarium), cupgrass, woolly (woolly cupgrass, Eriochloa villosa), bermudagrass (Cynodon dactylon), sunflower, (common oilseed sunflower, Helianthus annuus), Russian thistle (Salsola kali), and velvetleaf (Abutilon theophrasti) were planted into a blend of loam soil and sand and treated preemergence with test chemicals formulated in a non-phytotoxic solvent mixture which included a surfactant.
(§4) At the same time, plants selected from these crop and weed species and also barley, winter (winter barley, Hordeum vulgare), windgrass (Apera spica-venti), chickweed (common chickweed, Stellaria media), deadnettle (henbit deadnettle, Lamium amplexicaule), and canarygrass (littleseed canarygrass, Phalaris minor) were planted in pots containing Redi-Earth® planting medium (Scotts Company, 14111 Scottslawn Road, Marysville, Ohio 43041) comprising spaghnum peat moss, vermiculite, wetting agent and starter nutrients and treated with postemergence applications of test chemicals formulated in the same manner. Plants ranged in height from 2 to 18 cm (1- to 4-leaf stage) for postemergence treatments. Treated plants and controls were maintained in a greenhouse for 13 to 15 days, after which time all species were compared to controls and visually evaluated. Plant response ratings, summarized in Table C, are based on a scale of 0 to 100 where 0 is no effect and 100 is complete control. A dash (-) response means no test result.

[8] = tested on: yellow nutsedge; test: Test C preemergence; assay type: in vivo, Cyperus esculentus; details: for Nutsedge, Yellow plant response rating: preemergence
Source text: as §3, §4

[9] = tested on: corn; test: Test A postemergence; assay type: in vivo, Zea mays; details: 0 to 100 scale where 0 is no effect and 100 is complete control
Outline: as §1

[10] = tested on: Italian ryegrass; test: Test C postemergence; assay type: in vivo, Lolium multiflorum; details: for Plant response rating, Ryegrass, Italian: Postemergence, scale 0 to 100 (0 no effect, 100 complete control)
Outline: as §2

[11] = tested on: large (Lg) crabgrass; test: Test C preemergence; assay type: in vivo, Digitaria sanguinalis; details: for Crabgrass, Large plant response rating: preemergence
Source text: as §3, §4

[12] = tested on: chickweed; test: Test C postemergence; assay type: in vivo, Stellaria media; details: for Plant response rating, Chickweed: Postemergence
Outline: as §2

[13] = tested on: kochia; test: Test C postemergence; assay type: in vivo, Kochia scoparia; details: for Plant response rating, Kochia: Postemergence
Outline: as §2

[14] = 16 g ai/ha, scale 0 to 100 (0 no effect, 100 complete control)
[15] = 62 g ai/ha, scale 0 (no effect) to 100 (complete control)
[16] = 125 g ai/ha, scale 0 (no effect) to 100 (complete control)
[17] = Preemergence, 31 g ai/ha, scale 0 to 100, 0 no effect, 100 complete control
[18] = 16 g ai/ha, postemergence, visual rating, scale 0 to 100 (0 no effect, 100 complete control), 13 to 15 days
[19] = 31 g ai/ha, scale 0 to 100 (0 no effect, 100 complete control), 13 to 15 days
[20] = 62 g ai/ha, scale 0 to 100 (0 no effect, 100 complete control)

## Fc1cnc(Oc2cccc(C(F)F)c2-n2cc(Cl)cn2)nc1 [Compound 94]
[1]; 125 g ai/ha
  Plant response rating, Crabgrass, Large: 50
[1]; 500 g ai/ha
  Plant response rating, Crabgrass, Large: 90
[2]; 125 g ai/ha
  Plant response rating, Foxtail, Giant: 70
[2]; 500 g ai/ha
  Plant response rating, Foxtail, Giant: 90
[3]; 125 g ai/ha, postemergence
  Plant response rating (0 to 100), Velvetleaf: 40
[3]; 31 g ai/ha, 13 to 15 days
  Plant response rating, Velvetleaf: 20
[3]; 62 g ai/ha
  Plant response rating, Velvetleaf: 65
[4]; [14]
  Waterhemp plant response rating: 80
[4]; [15]
  Waterhemp plant response rating: 100
[4]; [16]
  Waterhemp plant response rating: 100
[4]; [17]
  Plant response rating, Waterhemp: 100
[5]; 125 g ai/ha, postemergence
  Plant response rating (0 to 100), Pigweed: 85
[5]; 31 g ai/ha, 13 to 15 days
  Plant response rating, Pigweed: 80
[5]; 62 g ai/ha
  Plant response rating, Pigweed: 80
[6]; 125 g ai/ha
  Plant response rating, Morningglory: 80
[6]; 500 g ai/ha
  Plant response rating, Morningglory: 100
[7]; [14]
  Pigweed plant response rating: 90
[7]; [15]
  Pigweed plant response rating: 100
[7]; [16]
  Pigweed plant response rating: 100
[7]; [17]
  Plant response rating, Pigweed: 100
[8]; [14]
  Nutsedge, Yellow plant response rating: 0
[8]; [15]
  Nutsedge, Yellow plant response rating: 55
[8]; [16]
  Nutsedge, Yellow plant response rating: 65
[8]; [17]
  Plant response rating, Nutsedge, Yellow: 0
[9]; 125 g ai/ha
  Plant response rating, Corn: 30
[9]; 500 g ai/ha
  Plant response rating, Corn: 50
[10]; 125 g ai/ha, postemergence
  Plant response rating (0 to 100), Ryegrass, Italian: 5
[10]; 31 g ai/ha, 13 to 15 days
  Plant response rating, Ryegrass, Italian: 0
[10]; 62 g ai/ha
  Plant response rating, Ryegrass, Italian: 0
[11]; [14]
  Crabgrass, Large plant response rating: 25
[11]; [15]
  Crabgrass, Large plant response rating: 100
[11]; [16]
  Crabgrass, Large plant response rating: 100
[11]; [17]
  Plant response rating, Crabgrass, Large: 98
[12]; [18]
  Chickweed plant response rating: 10
[12]; 125 g ai/ha, postemergence
  Plant response rating (0 to 100), Chickweed: 70
[12]; [19]
  Plant response rating, Chickweed: 60
[12]; [20]
  Plant response rating, Chickweed: 60
[13]; [18]
  Kochia plant response rating: 30
[13]; 125 g ai/ha, postemergence
  Plant response rating (0 to 100), Kochia: 90
[13]; [19]
  Plant response rating, Kochia: 80
[13]; [20]
  Plant response rating, Kochia: 90

— patent publication US9695155B2, “Herbicidal substituted pyrimidinyloxy benzene compounds” (E. I. DU PONT DE NEMOURS AND COMPANY, priority 2013, dated 2017)
